Reference: EP0359439A1, “Substituted pyridazinones” (ORION-YHTYMÄ OY, priority 1988, dated 1990)
“And” between values parts separate entries of the source, which are not always exact repeats. Equal entries are not always repeated.

Target: Canine Cardiac Phosphodiesterase III
Test: Inhibition of Canine Cardiac Phosphodiesterase III enzyme
Format: biochemical
Conditions: concentration showing 50% inhibition of Canine Cardiac Phosphodiesterase III enzyme; read-out: IC₅₀
Description: In Table 5 the concentration of the compounds showing 50% inhibition of Canine Cardiac Phosphodiesterase III enzyme is given.

Structure (SMILES) | IC50
CC1(C)C(=O)Nc2cc3nc(-c4ccncc4)[nH]c3cc21 [BM 14.478, 5,7-Dihydro-7,7-dimethyl-2-(4-pyridinyl)-pyrrolo-(2,3-f)benzimidazol-6(1H)-one, reference compound] | 940 nM
O=C1CCC(c2ccc(N=Cc3ccc(O)cc3O)cc2)=NN1 [Compound A, 6-[4-(2,4-Dihydroxyphenyl)methyleneaminophenyl]-4,5-dihydropyridazin-3(2H)one] | 1700 nM
O=C1CCC(c2ccc(N=C(c3ccccc3)c3ccc(O)cc3O)cc2)=NN1 [Compound C] | 19 nM
CC(=Nc1ccc(C2=NNC(=O)CC2C)cc1)c1ccc(O)cc1O (stereo not drawn) [Compound D, 6-[4-(1-(2,4-Dihydroxyphenyl)ethylidene)aminophenyl]-4,5-dihydro-5-methylpyridazin-3(2H)one] | 60 nM and 100 nM
CCC(=Nc1ccc(C2=NNC(=O)CC2)cc1)c1ccc(O)cc1O [Compound E, 6-[4-(1-(2,4-Dihydroxyphenyl)propylidene)aminophenyl]-4,5-dihydropyridazin-3(2H)one] | 390 nM

Second part, the molecule after the results:

IC50 | Structure (SMILES)
> 10000 nM | O=C1CCC(c2ccc(N=Cc3c(O)ccc4ccccc34)cc2)=NN1 [Compound F, 6-[4-(2-hydroxynaphtyl)methyleneaminophenyl]-4,5-dihydropyridazin-3(2H)one]
140 nM | CC(=Nc1ccc(-c2ccc(=O)[nH]n2)cc1)c1ccc(O)cc1O [Compound H, 6-[4-(1-(2,4-Dihydroxyphenyl)ethylidene)aminophenyl]pyridazin-3(2H)one]
2 nM | O=C1CCC(c2ccc(N=C(CCc3ccccc3)c3ccc(O)cc3O)cc2)=NN1 [Compound L, 6-[4-(1-(2,4-dihydroxyphenyl)-3-phenylpropylidene)aminophenyl]-4,5-dihydropyridazin-3(2H)one]
2000 nM and 1500 nM | COc1ccc(-c2nc3cc(C4=NNC(=O)CC4C)ccc3[nH]2)cc1 (stereo not drawn) [Pimobendan, 4,5-Dihydro-6-(2-(4-methoxyphenyl)-1H-benzimidazol-5-yl)-5-methyl-3(2H)-pyridazinone, reference compound]
